# Results: patent US20240002313A1, “[11C]-LABELED ACYCLIC RETINOID, CENTRAL NERVOUS SYSTEM ACTIVATOR, AND PRODUCTION METHODS FOR SAME” (NATIONAL CENTER FOR GERIATRICS AND GERONTOLOGY, priority 2020, published 2024)
# Legend:
# [1] = test system: NT2 cells; test: Differentiation induction from stem cells to nerve cells; format: cell-based, human; conditions: peretinoin 3 10 μM, ATRA 1 μM or 10 μM
# Description: NTERA-2 cl.D1 [NT2/D1] cells (ATCC CRL-1973) (hereinafter described as “NT2 cells”) derived from human pluripotent embryonic cancer were adhesion cultured in a maintenance culture medium (high glucose D-MEM (Sigma-Aldrich, D6429), 10% FBS, 100 U/ml penicillin/streptomycin) under conditions of 37° C. and 5% CO2 for 3 to 4 days on a 10 cm plastic dish until becoming confluent. The NT2 cells were exfoliated by Accutase (Innovative Cell Technologies, #AT104), passaged, and maintenance cultured for 50 days. The medium was changed three times a week. The maintenance cultured NT2 cells were dispersed in a petri dish for low-attached microorganisms (STAR SDish9015, RIKEN) at a concentration of 1.5×10^6 to 2.5×10^6/dish, and suspension cultured on a vibrator (100 rpm) under conditions of 37° C. and 5% CO2, and after one day, 1 μM or 10 μM ATRA was added to induce differentiation and form spheroids. After 14 days, the spheroids were recovered, seeded on a 10 cm dish coated with 5 μg/ml poly-D-lysine (PDL) (Sigma-Aldrich)/laminin (LAM) (iMatrix-511, Nippi), and adhesion cultured under conditions of 37° C. and 5% CO2. […]
# [2] = test system: NMDA-type glutamate receptors; test: Calcium imaging of reactivity to NMDA in differentiated cells; format: cell-based, human; conditions: NT2-N cells, Fluo-8, 100 μM NMDA solution
# Description: In order to confirm a statement of synaptic receptors in mature cells, a calcium influx via NMDA-type glutamate receptors was measured as follows.
# A fluorescent calcium indicator Fluo-8 AM (AAT Bioquest) was dissolved in Mg-free HHBS (Hepes-buffered Hanks' balanced salt solution (1.26 mM CaCl2, 5.33 mM KCl, 0.44 mM KH2PO4, 4.17 mM NaHCO3, 137.93 mM NaCl, 0.34 mM Na2HPO4, 5.56 mM D-glucose, 20 mM HEPES, pH 7.4)) containing 0.1 μM glycine (4 μM, 2 μM, respectively). This solution (1 ml) was loaded into NT2-N cells under conditions of 37° C. and 5% CO2 (2 hours, 30 minutes, respectively), and fluo8 was loaded into the cells. Thereafter, an extracellular fluid was replaced with Mg-free HHBS containing 0.1 μM glycine, and it was used for the following measurement after being left in an incubator (37° C., 5% CO2) of a living cell time-lapse imaging device (BioStation IM-Q, Nikon) for 1 hour or more. For the NT2-N cells placed in the device, 5 to 10 fields of view to be analyzed were manually set, and for each field of view, fluorescence intensity was continuously recorded every 2 seconds for 5 minutes at an excitation wavelength of 480 nm/a fluorescence wavelength of 520 nm. Further, after a certain period of time elapsed from the start of recording, 100 μl of the 100 μM NMDA solution (Mg-free HHBS containing 0.1 μM glycine) prepared above was administered.
# [3] = Non Patent Literature 2 and 3; cited from earlier work
# [4] = PET pharmacokinetic test of 11C-labeled acyclic retinoids in cynomolgus monkeys; format: in vivo; conditions: cynomolgus monkey, i.v.
# Description: (§1) The ^11C-labeled acyclic retinoid 4c and the ^11C-labeled peretinoin 3 synthesized by the methods described above were administered intravenously (i.v.) to Sprague-Dawley rats and cynomolgus monkeys as a PET probe, and PET images were photographed.
# [5] = PET pharmacokinetic test of 11C-labeled acyclic retinoids in rats; format: in vivo, Sprague-Dawley rats; conditions: rat, i.v.
# Description: as §1
# [6] = test system: cerebral cortex-striatal tissue sections; test: Inhibitory effect on thrombin toxicity in cultured brain slices; format: cell-based, Wistar/ST rat; conditions: 10, 20, 30 μM; thrombin 100 U/ml, 72 hours
# Description: (§2) Thrombin is known to induce cerebral cortex cell death and striatal tissue atrophy. Therefore, an experiment for evaluating thrombin toxicity was performed. In other words, a coronal section having a thickness of 300 μm was prepared from a brain of a Wistar/ST rat aged 2 to 3 days after birth, a fan-shaped tissue piece including a cerebral cortex and striatum was cut out, and then left to stand on a porous membrane (Millicell-CM, Millipore Corporation), and culture was maintained at a gas-liquid interface under a conditions of 34° C./5% CO2 (medium composition: 50% minimal essential medium, 25% Hanks' balanced salt solution, 25% horse serum). […] PI fluorescence images were acquired using a fluorescence microscope (Keyence) 72 hours after a start of thrombin treatment, and a degree of cell death was evaluated using fluorescence intensity of a cortical region as an index (sections of 100 μM NMDA treated for 72 hours were provided for each experiment, and their PI fluorescence intensity was standardized as 100%). Further, an area of a striatal region in each tissue piece was measured from bright field images of cultured tissue pieces acquired before and after the thrombin treatment, and a rate of tissue atrophy due to the thrombin treatment was quantified.
# [7] = test system: cerebral cortex-striatal tissue sections; test: Evaluation using K252a (TrkB inhibitor) of the cytoprotective effect against thrombin; format: cell-based, Wistar/ST rat; conditions: thrombin + K252a (3 μM)
# Description: as §2, with “quantified. […]” for “quantified.”
# [8] = test system: cerebral hemorrhage; test: Effect on cerebral hemorrhage pathology (collagenase injection into striatum); format: in vivo, ICR mouse
# Description: A male ICR mouse aged 8 to 10 weeks was placed in a brain stereotaxic apparatus under triple anesthesia, and bleeding was induced by injecting 0.035 U of collagenase type VII (Sigma) into a fixed coordinate (2.3 mm lateral to a median, 0.2 mm posterior to a bregma suture, 3.5 mm below a skull) in the striatum over 2.5 minutes using a 30 gauge needle. After that, the surface of the skull was reduced with dental cement, and breeding was continued. The peretinoin 3 (40 mg/kg) was suspended in water together with 0.5% carboxymethyl cellulose, and administered intragastrically using an oral sonde three times in total 3, 27, and 51 hours after the bleeding induction. Note that for comparison, 0.5% carboxymethyl cellulose without the peretinoin 3 was also administered intragastrically in a similar manner. A degree of motor dysfunction in the mouse was evaluated by performing two types of motor function tests (beam walking test, modified limb-placing test) 6, 24, 48, and 72 hours after the bleeding induction. Further, after completion of the motor function test 72 hours later, the mouse was perfused and fixed under anesthesia, and the brain was extracted to prepare a frozen coronary section having a thickness of 16 μm. The effects of the peretinoin 3 were evaluated by identifying microglia, astrocytes, and neurons in the brain tissue, respectively, through immunohistochemistry using antibodies against Iba1, GFAP, and NeuN, and quantifying the number of cells in a given area or an immune reaction positive area.
# [9] = radioactivity in brain for each time
# [10] = radioactivity in brain over time
# [11] = 40 mg/kg intragastrically, 6, 24, 48, 72 hours after bleeding
# [12] = 40 mg/kg intragastrically, brain taken 72 hours after bleeding
structure (smiles),measurement,setting,value
"CC1=C(/C=C/C(C)=C/C=C/C(C)=C/C(=O)O)C(C)(C)CCC1 [ATRA, All-trans-retinoic acid, reference compound]",number of cells expressing MAP2 without expressing nestin (differentiation induction into nerve cells),[1],increased
same,"expression of NMDA-type glutamate receptors in induced nerve cells (calcium imaging, NMDA)",[2],expressed NMDA-type glutamate receptors
CC1(C)CCC(C)(C)c2cc(NC(=O)c3ccc([11C](=O)O)cc3)ccc21 [^11C-labeled Am80],intracerebral migration when used as a PET probe,[3],no intracerebral migration was observed
Cc1cc2c(cc1-n1nnc3cc([11C](=O)O)ccc31)C(C)(C)CCC2(C)C [^11C-labeled CBt-PMN],intracerebral migration when used as a PET probe,[3],higher intracerebral migration than that of ^11C-labeled bexarotene
CC(C)=CCC/C(C)=C/CC/C(C)=C/C=C/C([11CH3])=C/C(=O)O [^11C-labeled peretinoin 3],migration into the brain (PET image),[4]; PET probe,migrated into a brain
same,start of migration into the brain after administration,[4]; [9],within several minutes
same,accumulation in the brain compared with the concentration when uniformly distributed throughout the body,[4]; [10],3.0 times
same,migration into the brain (PET image),[5]; PET probe,migrated into a brain
same,start of migration into the brain after administration,[5]; [9],within several minutes
same,accumulation in the brain compared with the concentration when uniformly distributed throughout the body,[5]; [10],1.3 times
"CC(C)=CCC/C(C)=C/CC/C(C)=C/C=C/C(C)=C/C(=O)O [peretinoin 3, (2E,4E,6E,10E)-3,7,11,15-tetramethylhexadeca-2,4,6,10,14-pentaenoic acid]",cerebral cortex cell death induced by thrombin (PI fluorescence),[6],concentration-dependent and significantly suppressed
same,striatal tissue atrophy induced by thrombin,[6],concentration-dependent and significantly suppressed
same,number of cells expressing MAP2 without expressing nestin (differentiation induction into nerve cells),[1],increased
same,inhibitory effect on striatal atrophy in the presence of K252a,[7],not blocked by K252a
same,protective effect on cerebral cortex cells in the presence of K252a,[7],blocked by K252a
same,changes in body weight after cerebral hemorrhage,"[8]; 40 mg/kg intragastrically 3, 27, 51 hours after bleeding induction",suppressed weight loss
same,beam-walking test: fall rate,[8]; [11],decrease
same,beam-walking test: score,[8]; [11],increase
same,beam-walking test: walking width,[8]; [11],increase
same,modified limb-placing test: deficit score,[8]; [11],decrease
same,motor dysfunction,"[8]; 40 mg/kg intragastrically, 24 to 72 hours after bleeding",significantly alleviated
same,accumulation of activated microglia around a hematoma (Iba1 immunohistochemistry),[8]; [12],significantly suppressed
same,shedding of nerve cells in the hematoma (NeuN immunohistochemistry),[8]; [12],suppressed
same,"expression of NMDA-type glutamate receptors in induced nerve cells (calcium imaging, NMDA)",[2],expressed NMDA-type glutamate receptors
